Laboratory results published in US5382579A, “Triazolo-1,4-diazepine derivatives and their use in pharmaceuticals” (Eisai Co., Ltd., priority 1988, dated 1995).
Where two headings read alike, the source gives them in different places.

Target: T1, PAF receptor (Homo sapiens, UniProt P25105)
T1 construct: Platelets are obtained from healthy men according to the usual method; endogenous in cells; host or cells: platelets from healthy men
Test: PAF Receptor Binding Assay to the Human Platelet (3H-PAF)
Details: 3H-PAF 0.6-1 nM, 37° C., pH 7.0
Experimental: Platelets are obtained from healthy men according to the usual method and suspended at a concentration of 10^8 platelets/460 μl in a binding buffer (10 mM phosphate-buffers saline (pH 7.0), with 0.1% (w/V) BSA and 0.9 mM CaCl2). Platelets (10^8) in 460 μl of the buffer were added to polypropylene tubes and preincubated with test compounds (20 μl), after vortexing, for 6 min at 37° C. Subsequently, 20 μl of a binding buffer solution of ^3 H-PAF (final ^3 H-PAF concentration 0.6-1 nM) was added to the tubes, which were incubated for 6 minutes. The binding reaction was stopped by adding of 3 ml of an ice-cold washing solution (saline containing 0.1% (w/v) BSA). Platelets were isolated by vacuum filtration on glass filters (Whatman GF/C). After drying the glass filter, radioactivity on the glass filter was measured in scintilator with a liquid scintillation counter.
The inhibition percent is calculated according to the following equation and the value of IC is determined by interpolation from the figure. [formula] binding: radioactivity of binding in the absence of cold PAF or test compounds
non-specific binding: radioactivity of binding in the presence of 10^-5 M PAF
non-specific binding: radioactivity (dpm) after the incubation with 10^-5 M of cold PAF.

[1] = PAF receptor binding assay IC50, human platelets
[2] = human platelets, read-out: PAF receptor binding assay IC50

T1 sequence (P25105 whole entry): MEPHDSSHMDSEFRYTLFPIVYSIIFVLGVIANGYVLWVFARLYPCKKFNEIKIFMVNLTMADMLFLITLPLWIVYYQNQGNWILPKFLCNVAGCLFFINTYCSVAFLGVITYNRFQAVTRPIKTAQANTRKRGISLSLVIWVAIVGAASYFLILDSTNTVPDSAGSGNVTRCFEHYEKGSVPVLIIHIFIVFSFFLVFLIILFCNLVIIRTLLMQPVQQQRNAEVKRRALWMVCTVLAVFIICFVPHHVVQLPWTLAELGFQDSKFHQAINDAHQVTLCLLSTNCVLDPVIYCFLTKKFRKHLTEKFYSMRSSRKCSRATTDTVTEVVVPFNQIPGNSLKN

Cc1nnc2n1-c1sc3c(c1C(c1ccccc1Cl)=NC2)CCN(C(=O)OC(C)(C)C#N)C3
IC50 [1]: 3.3 nM

Cc1nnc2n1-c1sc3c(c1C(c1ccccc1Cl)=NC2)CCN(C(=O)C1CCC1)C3
IC50 [1]: 1.8 nM

Cc1nnc2n1-c1sc3c(c1C(c1ccccc1Cl)=NC2)CCN(C(=O)C#Cc1ccccc1)C3
IC50 [1]: 0.56 nM

C#CCCCCOC(=O)N1CCc2c(sc3c2C(c2ccccc2Cl)=NCc2nnc(C)n2-3)C1
IC50 [1]: 0.22 nM

CCC#CCOC(=O)N1CCc2c(sc3c2C(c2ccccc2Cl)=NCc2nnc(C)n2-3)C1
IC50 [1]: 0.74 nM

Cc1nnc2n1-c1sc3c(c1C(c1ccccc1Cl)=NC2C)CCN(C(=O)OC(C)(C)C#N)C3 (single isomer, unassigned) [drawing 90]
IC50 [2]: 500 nM

Cc1nnc2n1-c1sc3c(c1C(c1ccccc1Cl)=NC2C)CCN(C(=O)OC(C)(C)C#N)C3 (single isomer, unassigned) [drawing 91]
IC50 [2]: 3.1 nM

C#CCCOC(=O)N1CCc2c(sc3c2C(c2ccccc2Cl)=NC(C)c2nnc(C)n2-3)C1 (single isomer, unassigned) [drawing 92]
IC50 [2]: 82 nM

C#CCCOC(=O)N1CCc2c(sc3c2C(c2ccccc2Cl)=NC(C)c2nnc(C)n2-3)C1 (single isomer, unassigned) [drawing 93]
IC50 [2]: 0.34 nM

Cc1nnc2n1-c1sc3c(c1C(c1ccccc1Cl)=NC2C)CCN(C(=O)C1CC1)C3 (single isomer, unassigned) [drawing 94]
IC50 [1]: 420 nM

Cc1nnc2n1-c1sc3c(c1C(c1ccccc1Cl)=NC2C)CCN(C(=O)C1CC1)C3 (single isomer, unassigned) [drawing 95]
IC50 [1]: 2.8 nM

Cc1nnc2n1-c1sc3c(c1C(c1ccccc1Cl)=NC2)CCN(C(=O)OCCCC#N)C3 [drawing 82]
IC50 [1]: 2.7 nM

C#CCCOC(=O)N1CCc2c(sc3c2C(c2ccccc2Cl)=NCc2nnc(C)n2-3)C1 [drawing 83]
IC50 [1]: 3.5 nM

C#CCCOC(=O)N1CCc2c(sc3c2C(c2ccccc2Cl)=NCc2nnc(C)n2-3)C1 [drawing 88]
IC50 [2]: 1.5 nM

Cc1nnc2n1-c1sc3c(c1C(c1ccccc1Cl)=NC2)CCN(C(=O)OCCCC#N)C3 [drawing 89]
IC50 [1]: 4.4 nM
